Measured values as given in patent publication US20220289794A1, “SYNTHETIC ANTIMICROBIAL PEPTIDES” (priority 2019, published 2022).
In brackets after ≈: the same amount, converted by molar mass. Non-standard residues stand in square brackets, D forms with d. Residues, ends and D or L forms follow the SMILES beside them. Dip = N[C@H](C(=O)O)C(c1ccccc1)c1ccccc1; 2Nal = N[C@@H](Cc1ccc2ccccc2c1)C(=O)O; d2Nal = N[C@H](Cc1ccc2ccccc2c1)C(=O)O; Dab = NCC[C@H](N)C(=O)O

What was measured:
[1] = system: Escherichia coli (ATCC 25922); details: ATCC 25922
[2] = system: Methicillin-resistant Staphylococcus aureus MRSA (ATCC BAA-1556); details: ATCC BAA-1556
human red blood cells = system: human red blood cells; design: unit not given beside the values
[3] = system: Pseudomonas aeruginosa (ATCC 27883); details: ATCC 27883
S. aureus ATCC 29213 = details: ATCC 29213

Compound	MIC E. coli ATCC 25922 [1]	MIC MRSA ATCC BAA-1556 [2]	HC50 (human red blood cells)	MIC P. aeruginosa ATCC 27883 [3]	MIC S. aureus ATCC 29213 (S. aureus ATCC 29213)
N=C(N)NCCC[C@H](NC(=O)[C@H](CCCNC(=N)N)NC(=O)[C@@H](N)CCCNC(=N)N)C(=O)N[C@@H](Cc1c[nH]c2ccccc12)C(=O)N[C@@H](Cc1ccc2ccccc2c1)C(=O)N[C@@H](Cc1ccc2ccccc2c1)C(=O)O [IFX-023-1, NH2-R-R-R-Trp-NaI-NaI-OH] (H-RRRW[2Nal][2Nal]-OH)	12.5 µg/mL (≈ 11.7 µM)	6.2 µg/mL (≈ 5.81 µM)	495	25 µg/mL (≈ 23.4 µM)	6.2 µg/mL (≈ 5.81 µM)
C[C@@H]1NC(=O)[C@H](C)NC(=O)[C@H](CCCNC(=N)N)NC(=O)[C@H](CCCNC(=N)N)NC(=O)[C@H](CCCNC(=N)N)NC(=O)[C@H](CCCNC(=N)N)NC(=O)[C@H](C)NC(=O)[C@H](C)NC(=O)[C@H](Cc2c[nH]c3ccccc23)NC(=O)[C@H](Cc2c[nH]c3ccccc23)NC(=O)[C@H](Cc2c[nH]c3ccccc23)NC(=O)[C@H](Cc2c[nH]c3ccccc23)NC1=O [IFX-045] (cyclo(AARRRRAAWWWW))	50 µg/mL (≈ 30.2 µM)	25 µg/mL (≈ 15.1 µM)	390	50 µg/mL (≈ 30.2 µM)	25 µg/mL (≈ 15.1 µM)
N=C(N)NCCC[C@H](NC(=O)[C@H](CCCNC(=N)N)NC(=O)[C@@H](N)CCCNC(=N)N)C(=O)N[C@H](C(=O)N[C@@H](Cc1c[nH]c2ccccc12)C(=O)N[C@H](C(=O)O)C(c1ccccc1)c1ccccc1)C(c1ccccc1)c1ccccc1 [IFX-021-1, NH2-R-R-R-Dip-Trp-Dip-OH] (H-RRR[Dip]W[Dip]-OH)	12.5 µg/mL (≈ 11.2 µM)	6.2 µg/mL (≈ 5.54 µM)	325	50 µg/mL (≈ 44.7 µM)	6.2 µg/mL (≈ 5.54 µM)
N=C(N)NCCC[C@@H]1NC(=O)[C@H](CCN)NC(=O)[C@@H](Cc2ccc3ccccc3c2)NC(=O)[C@@H](Cc2ccc3ccccc3c2)NC(=O)[C@H](Cc2c[nH]c3ccccc23)NC(=O)[C@@H](CCCNC(=N)N)NC(=O)[C@H](CCCNC(=N)N)NC(=O)[C@@H](CCCNC(=N)N)NC1=O [IFX-056, c[Dab-Arg-arg-Arg-arg-Trp-naI-naI]] (cyclo([Dab]R[dR]R[dR]W[d2Nal][d2Nal]))	32 µg/mL (≈ 24.5 µM)	64 µg/mL (≈ 49 µM)	415	32 µg/mL (≈ 24.5 µM)	32 µg/mL (≈ 24.5 µM)
N=C(N)NCCC[C@@H]1NC(=O)[C@H](CCCNC(=N)N)NC(=O)[C@H](CCCNC(=N)N)NC(=O)[C@H](Cc2ccc3ccccc3c2)NC(=O)[C@H](Cc2ccc3ccccc3c2)NC(=O)[C@H](Cc2ccc3ccccc3c2)NC(=O)[C@H](CCCNC(=N)N)NC1=O [IFX-009, c[Arg-Arg-Arg-Arg-NaI-NaI-NaI]] (cyclo(RRRR[2Nal][2Nal][2Nal]))	25 µg/mL (≈ 20.6 µM)	1.5 µg/mL (≈ 1.23 µM)	205	12.5 µg/mL (≈ 10.3 µM)	1.5 µg/mL (≈ 1.23 µM)
N=C(N)NCCC[C@H]1NC(=O)[C@@H](CCCNC(=N)N)NC(=O)[C@@H](CCCNC(=N)N)NC(=O)[C@@H](Cc2c[nH]c3ccccc23)NC(=O)[C@@H](Cc2c[nH]c3ccccc23)NC(=O)[C@@H](Cc2c[nH]c3ccccc23)NC(=O)[C@@H](Cc2c[nH]c3ccccc23)NC(=O)[C@@H](CCCNC(=N)N)NC1=O [IFX-032, c[arg-arg-arg-arg-trp-trp-trp-trp]] (cyclo([dR][dR][dR][dR][dW][dW][dW][dW]))	25 µg/mL (≈ 18.3 µM)	6.2 µg/mL (≈ 4.53 µM)	230	25 µg/mL (≈ 18.3 µM)	6.2 µg/mL (≈ 4.53 µM)
N=C(N)NCCC[C@H](NC(=O)[C@H](CCCNC(=N)N)NC(=O)[C@@H](N)CCCNC(=N)N)C(=O)N[C@@H](CCCNC(=N)N)C(=O)N[C@H](C(=O)N[C@H](C(=O)N[C@H](C(=O)N[C@H](C(=O)O)C(c1ccccc1)c1ccccc1)C(c1ccccc1)c1ccccc1)C(c1ccccc1)c1ccccc1)C(c1ccccc1)c1ccccc1 [IFX-005-1, NH2-Arg-Arg-Arg-Arg-Dip-Dip-Dip-Dip-OH] (H-RRRR[Dip][Dip][Dip][Dip]-OH)	50 µg/mL (≈ 32.6 µM)	6.2 µg/mL (≈ 4.04 µM)	135	50 µg/mL (≈ 32.6 µM)	6.2 µg/mL (≈ 4.04 µM)
N=C(N)NCCC[C@@H]1NC(=O)[C@@H](CCCNC(=N)N)NC(=O)[C@H](CCCNC(=N)N)NC(=O)[C@@H](Cc2ccc3ccccc3c2)NC(=O)[C@@H](Cc2ccc3ccccc3c2)NC(=O)[C@H](Cc2c[nH]c3ccccc23)NC(=O)[C@H](CCN)NC(=O)[C@@H](CCCNC(=N)N)NC1=O [IFX-054, c[Arg-arg-Arg-arg-Dab-Trp-naI-naI]] (cyclo([Dab]W[d2Nal][d2Nal]R[dR]R[dR]))	32 µg/mL (≈ 24.5 µM)	64 µg/mL (≈ 49 µM)	620	64 µg/mL (≈ 49 µM)	32 µg/mL (≈ 24.5 µM)
N=C(N)NCCC[C@@H]1NC(=O)[C@H](CCCNC(=N)N)NC(=O)[C@H](CCCNC(=N)N)NC(=O)[C@H](C(c2ccccc2)c2ccccc2)NC(=O)[C@H](C(c2ccccc2)c2ccccc2)NC(=O)[C@H](CCCNC(=N)N)NC1=O [IFX-010, c[Arg-Arg-Arg-Arg-Dip-Dip]] (cyclo([Dip][Dip]RRRR))	50 µg/mL (≈ 46.7 µM)	6.2 µg/mL (≈ 5.79 µM)	270	25 µg/mL (≈ 23.3 µM)	6.2 µg/mL (≈ 5.79 µM)
N=C(N)NCCC[C@H](NC(=O)[C@H](CCCNC(=N)N)NC(=O)[C@H](CCCNC(=N)N)NC(=O)[C@@H](N)CCCNC(=N)N)C(=O)N[C@@H](Cc1ccc2ccccc2c1)C(=O)N[C@@H](Cc1ccc2ccccc2c1)C(=O)N[C@@H](Cc1ccc2ccccc2c1)C(=O)N[C@@H](Cc1ccc2ccccc2c1)C(=O)O [IFX-006-1, NH2-Arg-Arg-Arg-Arg-NaI-NaI-NaI-NaI-OH] (H-RRRR[2Nal][2Nal][2Nal][2Nal]-OH)	50 µg/mL (≈ 34.9 µM)	6.2 µg/mL (≈ 4.33 µM)	140	>100 µg/mL	3.1 µg/mL (≈ 2.17 µM)
N=C(N)NCCC[C@H](NC(=O)[C@H](CCCNC(=N)N)NC(=O)[C@@H](N)CCCNC(=N)N)C(=O)N[C@@H](Cc1ccc2ccccc2c1)C(=O)N[C@@H](Cc1ccc2ccccc2c1)C(=O)N[C@@H](Cc1c[nH]c2ccccc12)C(=O)O [IFX-025-1, NH2-R-R-R-NaI-NaI-Trp-OH] (H-RRR[2Nal][2Nal]W-OH)	25 µg/mL (≈ 23.4 µM)	12.5 µg/mL (≈ 11.7 µM)	375	50 µg/mL (≈ 46.8 µM)	12.5 µg/mL (≈ 11.7 µM)
N=C(N)NCCC[C@H]1NC(=O)[C@H](Cc2c[nH]c3ccccc23)NC(=O)[C@H](Cc2c[nH]c3ccccc23)NC(=O)[C@H](Cc2c[nH]c3ccccc23)NC(=O)[C@H](Cc2c[nH]c3ccccc23)NC(=O)[C@@H](CCCNC(=N)N)NC(=O)[C@@H](CCCNC(=N)N)NC(=O)[C@@H](CCCNC(=N)N)NC1=O [IFX-036, c[arg-arg-arg-arg-Trp-Trp-Trp-Trp]] (cyclo([dR][dR][dR][dR]WWWW))	12.5 µg/mL (≈ 9.13 µM)	6.2 µg/mL (≈ 4.53 µM)	600	25 µg/mL (≈ 18.3 µM)	6.2 µg/mL (≈ 4.53 µM)
N=C(N)NCCC[C@H](NC(=O)[C@H](CCCNC(=N)N)NC(=O)[C@@H](N)CCCNC(=N)N)C(=O)N[C@@H](CCCNC(=N)N)C(=O)N[C@H](C(=O)N[C@@H](Cc1c[nH]c2ccccc12)C(=O)N[C@H](C(=O)O)C(c1ccccc1)c1ccccc1)C(c1ccccc1)c1ccccc1 [IFX-027-1, NH2-R-R-R-R-Dip-Trp-Dip-OH] (H-RRRR[Dip]W[Dip]-OH)	12.5 µg/mL (≈ 9.8 µM)	3.1 µg/mL (≈ 2.43 µM)	910	25 µg/mL (≈ 19.6 µM)	3.1 µg/mL (≈ 2.43 µM)
N=C(N)NCCC[C@H](NC(=O)[C@H](CCCNC(=N)N)NC(=O)[C@@H](N)CCCNC(=N)N)C(=O)N[C@@H](CCCNC(=N)N)C(=O)N[C@H](C(=O)N[C@H](C(=O)O)C(c1ccccc1)c1ccccc1)C(c1ccccc1)c1ccccc1 [IFX-010-1, NH2-Arg-Arg-Arg-Arg-Dip-Dip-OH] (H-RRRR[Dip][Dip]-OH)	50 µg/mL (≈ 45.9 µM)	12.5 µg/mL (≈ 11.5 µM)	360	50 µg/mL (≈ 45.9 µM)	12.5 µg/mL (≈ 11.5 µM)
N=C(N)NCCC[C@H](NC(=O)[C@H](CCCNC(=N)N)NC(=O)[C@H](CCCNC(=N)N)NC(=O)[C@H](CCCNC(=N)N)NC(=O)[C@@H](N)CCCNC(=N)N)C(=O)N[C@@H](Cc1ccc2ccccc2c1)C(=O)N[C@@H](Cc1ccc2ccccc2c1)C(=O)N[C@@H](Cc1ccc2ccccc2c1)C(=O)O [IFX-013-1, NH2-Arg-Arg-Arg-Arg-Arg-NaI-NaI-NaI-OH] (H-RRRRR[2Nal][2Nal][2Nal]-OH)	25 µg/mL (≈ 18 µM)	3.1 µg/mL (≈ 2.23 µM)	200	25 µg/mL (≈ 18 µM)	3.1 µg/mL (≈ 2.23 µM)
N=C(N)NCCC[C@@H]1NC(=O)CNC(=O)[C@H](Cc2c[nH]c3ccccc23)NC(=O)[C@H](Cc2c[nH]c3ccccc23)NC(=O)[C@H](Cc2c[nH]c3ccccc23)NC(=O)[C@H](Cc2c[nH]c3ccccc23)NC(=O)CNC(=O)[C@H](CCCNC(=N)N)NC(=O)[C@H](CCCNC(=N)N)NC(=O)[C@H](CCCNC(=N)N)NC1=O [IFX-043] (cyclo(GRRRRGWWWW))	25 µg/mL (≈ 16.8 µM)	6.2 µg/mL (≈ 4.18 µM)	580	50 µg/mL (≈ 33.7 µM)	6.2 µg/mL (≈ 4.18 µM)
